Experimental data as given in patent US12576057B2, “Antibacterial and biofilm formation-inhibiting composition containing myristoleic acid as active ingredient” (RESEARCH COOPERATION FOUNDATION OF YEUNGNAM UNIVERSITY, priority 2020, dated 2026).
In brackets after ≈: the same amount, converted by molar mass. Read-outs that look alike come from different tables or passages of the source.

What was measured:
C. acnes ATCC 6919 [1] = test: Crystal violet biofilm formation assay, C. acnes ATCC 6919; type: cell-based, Cutibacterium acnes; conditions: for inhibition at 20 µg/mL / inhibition at 1 µg/mL: Cutibacterium acnes, ATCC6919, 96 h; for inhibition at 20 µg/mL / change in biofilm formation: 20 μg/ml; for inhibition at 20 µg/mL: 96 h culture in RCM, 96-well plate; for change in biofilm formation: 96 h culture; for inhibition at 1 µg/mL: 1 μg/ml, 96 h, 96-well polystyrene plate, read-out: inhibitory effect on biofilm formation
Method: 3. Crystal Violet Film Assay
Crystal violet assay was performed by the previously reported method (Lee et al., 2017b) to quantify biofilm formation.
To quantify the biofilm, planktonic growth was eliminated, the plate was washed three times with distilled water, and the biofilm attached to the well was stained with 0.1% crystal violet for 20 minutes. Thereafter, the plate was washed three times with sterile distilled water, and crystal violet was extracted using 95% ethanol, absorbance was measured at 570 nm using Multiskan EX microplate reader (Thermo Fisher Scientific, Waltham, MA), and the result was shown as an average value of at least 12 replicate wells.
Percentage for inhibition rate represents relative biofilm formation (100×biofilm formation with chemical/biofilm formation of untreated control).

C. acnes ATCC 6919 [2] = test: Hydrophobicity analysis: microbial adherence to hydrocarbon (MATH); type: cell-based, Cutibacterium acnes; conditions: for change of cell hydrophobicity: 10 and 20 μg/ml fatty acids, 96 h
Method: MATH analysis (Rosenberg et al., 1980) was performed to identify the effect of fatty acids on the attachability of C. acnes to hydrocarbons (toluene) and the cell surface hydrophobicity of C. acnes.
C. acnes were grown without fatty acids for 96 hours under anaerobic conditions at 37° C.
The OD values of all treated and untreated cultures were adjusted to OD 0.5±0.05, and an equal volume of toluene was added to 3 ml of the cell suspension, followed by stirring for 60 seconds.
After stirring, incubation of an aqueous solution was performed overnight at room temperature to completely remove the trace solvent. OD600 in the aqueous solution was observed and cell surface hydrophobicity (CSH) was evaluated by hydrophobicity index (HI) using the following formula. (HI=[1−(OD600 after vortexing/OD600 before vortexing)]×100) (Mattos-Guaraldi et al., 1999). 8. Identification of Anti-Viral Effect and Cytotoxicity of Myristoleic Acid in Nematode Model

C. acnes ATCC 6919 [3] = test: Quantification of extracellular polymeric substance (EPS); type: cell-based, Cutibacterium acnes; conditions: 10 μg/ml, 96 h culture
Method: 6. Quantification of Extracellular Polymeric Substance (EPS)
For EPS quantification, C. acnes treated with control and myristoleic acid was cultured at 37° C. for 96 hours. After culture, the culture was centrifuged at 8,228×g for 10 minutes, and the supernatant was separated.
The cell pellet was washed with sterile PBS to remove the culture supernatant which is free of residual cells. 15 ml of an isotonic solution (10 mM Tris/HCl, pH 8.0, 10 mM EDTA, 2.5% NaCl) was added to the cell pellet, and the mixed wells were culture at 4° C. overnight.
After overnight culture, the cell suspension was shaken to be mixed for 5 minutes, followed by centrifugation at 8,228×g for 10 minutes. The supernatant containing EPS bound with the cells was separated from the cells. Cold ethanol was added to the supernatant in a ratio of 1:3 and left at −20° C. overnight.
After collecting the precipitated EPS by centrifugation at 4° C., 18,514×g for 30 minutes, the pellet was washed with 70% ethanol and dried. The dried EPS was weighed, and inhibition of EPS production by fatty acids was calculated by the following formula (Sivasankar et al., 2016). ([Control wt−Treated wt/Control wt]×100) 7. Hydrophobicity Analysis: Microbial Adherence to Hydrocarbon (MATH)

C. acnes ATCC 6919 [4] = test: Planktonic cell growth and MIC identification; type: cell-based, Cutibacterium acnes; conditions: for MIC: after 96 hours of culture
Method: 2. Measurement of Planktonic Cell Growth and MIC Identification In order to identify the effect of fatty acids on the planktonic growth of C. acnes, a culture cultured for 96 hours in a 96-well plate was re-transplanted after undergoing dilution in a ratio of 1:50 and then treated with fatty acids of different concentrations. Plates were cultured under anaerobic condition at 37° C. and maintained using an anaerobic pouch (Fisher Scientific, Pittsburgh, USA). After 96 hours of culture, cell turbidity was checked at 600 nm using Optizen 2120UV spectrophotometer ([…] Co. Ltd., Daejeon, Korea).

C. acnes ATCC 6919 [5] = test: Rapid killing (time-kill) experiment; type: cell-based, Cutibacterium acnes; conditions: 100 μg/ml
Method: 4. Analysis of Rapid Killing of Acne Bacteria Using Fatty Acids To determine the killing time by fatty acids, a time-kill experiment was performed. Briefly, cultures of C. acnes ATCC 6919 grown in RCM broth (BD Difco™, Fisher Scientific, Pittsburgh, USA) at 37° C. under anaerobic conditions for 96 hours were diluted in a ratio of 1:50 with fresh RCM medium. The samples were treated with myristoleic acid (50 and 100 μg/ml) or lauric acid (50 and 100 μg/ml) and cultured at 37° C. under anaerobic conditions while stirring. At each time point, aliquots of treated cells were collected, and after performing appropriate dilutions, cells were smeared on RCM agar plates and incubated at 37° C. for 96 hours, followed by enumeration of CFUs, wherein each experiment was repeated.

S. aureus ATCC 6538 = test: Biofilm formation of S. aureus ATCC 6538; type: cell-based, Staphylococcus aureus
Description: (§1) The antibacterial and anti-biofilm activity of myristoleic acid against five Staphylococcus aureus strains was identified, including two methicillin-sensitive S. aureus strains (MSSA; ATCC 25923 and ATCC 6538), two methicillin-resistant S. aureus strains (MRSA, MW2, and ATCC 33591), and S. epidermidis strains.

C. acnes [6] = conditions: after 72 hours, previous report; cited from earlier work
C. acnes [7] = test: Scanning electron microscopy of biofilm / EPS; type: cell-based, Cutibacterium acnes; conditions: 10 μg/ml
Method: 5. Scanning Electron Microscopy
Production of extracellular polymeric substance (EPS) was detected by electron microscopy (SEM) by the previously reported method (Lee et al., 2011).
Briefly, C. acnes cells were inoculated in 96-well plates under conditions with or without fatty acids, and a nylon filter (0.4×0.4 mm square) was added to each well. Biofilms were grown on the nylon filters by culturing together for 96 hours without stirring under anaerobic conditions at 37° C.
Then, the biofilm cells on the piece of nylon filter were immobilized with 2.5% glutaraldehyde and 2% formaldehyde for 24 hours and sequentially immobilized with osmium tetroxide, followed by dehydration with ethanol series (50, 70, 80, 90, 95 and 100%) and isoamyl acetate.
After critical point drying, the cells on the filter were stopper-coated with to palladium/gold, and observed under an S-4100 scanning electron microscope (Hitachi, Tokyo, Japan) at a magnification of ×1000 to ×10,000 using an acceleration voltage of 15 kV.

[8] = system: S. aureus ATCC 6538, S. aureus ATCC 25923, MRSA MW2, MRSA ATCC 33591, S. epidermidis ATCC 14990; test: Biofilm formation of five Staphylococcus strains; type: cell-based, Staphylococcus aureus, Staphylococcus epidermidis
Description: as §1

[9] = system: C. elegans infected with C. acnes ATCC 6919; test: C. elegans killing assay with C. acnes infection; type: in vivo; conditions: 10 μg/ml, 4 days; 20% survived without treatment
Method: C. elegans killing assay was performed with a slight modification of the previously reported method (Beceiro et al., 2014). Briefly, assays were performed in 96-well plates.
Young adult nematodes (20-30) [fer-15(b26);fem-1(hc17)] were transferred to each well contained in an M9 solution. The untreated control and fatty acid-treated C. acnes cells were each added to separate wells containing 20 to 30 nematodes and incubated at 25° C.
Nematodes solely exposed to E. coli OP50 at CFU of 1×10^6 cells/ml were used as a control.
Viability was identified by exposing to LED or UV LED light for 10 to 30 seconds using the iRiS™ Digital Cell Imaging System (Logos BioSystems, South Korea) by the previously reported method (Rajasekharan et al., 2018). The experiments were repeated three times.

Staphylococcus strains = test: MIC against Staphylococcus strains; type: cell-based, Staphylococcus aureus
Description: as §1

uninfected C. elegans = test: Chemical toxicity in uninfected C. elegans; type: in vivo; conditions: increased to 500 μg/ml for 5 days, uninfected nematodes
Method: The toxicity of myristoleic acid was identified in […].
[…] was treated with myristoleic acid with various doses, and survival was checked every day for 5 consecutive days.
In addition, in order to identify the chemical toxicity of myristoleic acid, uninfected nematodes were exposed to different concentrations of myristoleic acid.

[10] = Cutibacterium acnes, ATCC6919, 96 h, read-out: MIC

SMILES	inhibition at 20 µg/mL (C. acnes ATCC 6919 [1])	change of cell hydrophobicity (C. acnes ATCC 6919 [2])	EPS production (C. acnes ATCC 6919 [3])	also measured
CCCCC/C=C\C/C=C\C/C=C\C/C=C\CCCC(=O)O [arachidonic acid]	> 60%	–	–	–
CCCCCC/C=C\CCCCCCCC(=O)O [cis-9-hexadecenoic acid, cis-9 hexadecenoic acid]	–	a little change in hydrophobicity	no significant changes	change in biofilm formation (C. acnes ATCC 6919 [1]): very subtle changes in biofilm formation
CCCCCCCCCC(=O)O [decanoic acid]	> 60%	–	no significant changes	MIC (C. acnes ATCC 6919 [4]; [10]): 20 to 200 µg/mL (≈ 116 to 1160 µM)
CCCCCCCC/C=C\CCCCCCCCCCCC(=O)O [erucic acid]	> 60%	–	–	–
CCCCCCCCCCCCCCCCC(=O)O [heptadecanoic acid]	> 60%	a little change in hydrophobicity	–	–
CCCCCCC(=O)O [heptanoic acid]	–	–	no significant changes	change in biofilm formation (C. acnes ATCC 6919 [1]): very subtle changes in biofilm formation
CCCCCCCCCCCC(=O)O [lauric acid, reference compound]	–	reduced cell hydrophobicity the most	significant reduction in EPS production	killing of C. acnes cells (C. acnes ATCC 6919 [5]): did not effectively kill; inhibition at 1 µg/mL (C. acnes ATCC 6919 [1]): ≥ 80%; anti-biofilm activity (S. aureus ATCC 6538): weak anti-biofilm activity; MIC (C. acnes [6]): 60 µg/mL (≈ 300 µM)
CCCCC/C=C\C/C=C\CCCCCCCC(=O)O [linoleic acid]	> 60%	reduced cell hydrophobicity the most	–	–
CC/C=C\C/C=C\C/C=C\CCCCCCCC(=O)O [linolenic acid]	> 60%	–	–	–
CCCCCCCCCCCCCC(=O)O [myristic acid]	> 60%	–	–	–
CCCC/C=C\CCCCCCCC(=O)O [myristoleic acid]	–	reduced cell hydrophobicity the most	significant reduction in EPS production	EPS production by SEM analysis (C. acnes [7]): reduction in EPS production; C. acnes cells killed (C. acnes ATCC 6919 [5]; in 1 hour): ≥ 99.999%; C. acnes biofilm formation (C. acnes ATCC 6919 [1]; <10 μg/ml): significantly inhibited; inhibition at 1 µg/mL (C. acnes ATCC 6919 [1]): ≥ 80%; anti-biofilm activity ([8]; 5 Staphylococcus strains): strong anti-biofilm activity; inhibition at 50 µg/mL ([8]; ALL5, 50 μg/ml, all 5 strains, read-out: biofilm formation inhibitory effect): > 90%; MIC of myristoleic acid relative to lauric acid (times lower) (C. acnes ATCC 6919 [4]; 20 μg/ml vs 100 μg/ml): 5 times; MIC (C. acnes ATCC 6919 [4]; [10]): 20 to 200 µg/mL (≈ 88.4 to 884 µM); MIC (C. acnes ATCC 6919 [4]): 20 µg/mL (≈ 88.4 µM); planktonic cell growth (C. acnes ATCC 6919 [4]; increased to 10 μg/ml): did not reduce planktonic cell growth; survival of C. elegans infected with C. acnes [9]: 70%; MIC (Staphylococcus strains): 150 µg/mL (≈ 663 µM); hydrophobicity index (cells made hydrophilic) (C. acnes ATCC 6919 [2]; 10 μg/ml): > 20%; dose-dependent effect on hydrophobicity (C. acnes ATCC 6919 [2]; 5, 10, 15, or 20 μg/ml): clear-cut decrease in hydrophobicity in a dose-dependent manner; toxicity to C. elegans (uninfected C. elegans): did not show toxicity
CCCCCCCCC(=O)O [nonanoic acid]	> 60%	–	–	–
CCCCCCCC/C=C\CCCCCCCC(=O)O [oleic acid]	> 60%	–	–	–
CCCCCCCCCCCCCCCC(=O)O [palmitic acid]	> 60%	–	–	–
CCCCCCCCCCCCCCCCCC(=O)O [stearic acid]	> 60%	a little change in hydrophobicity	no significant changes	–
CCCCCCCCCCCCCCCCCCCCCCC(=O)O [trichoic acid, tricosanoic acid]	> 60%	a little change in hydrophobicity	no significant changes	–
CCCCCCCCCCC(=O)O [undecanoic acid]	> 60%	–	significant reduction in EPS production	MIC (C. acnes ATCC 6919 [4]; [10]): 20 to 200 µg/mL (≈ 107 to 1070 µM)
CCCCC(=O)O [valeric acid, pentanoic acid]	–	–	–	change in biofilm formation (C. acnes ATCC 6919 [1]): very subtle changes in biofilm formation
